Test system: ACC PDX models
Assay: ATRA comparison TGI studies in ACC PDX models
Type: in vivo
Conditions: ATRA 8 mg/kg to 32 mg/kg; tamibarotene 2 mg/kg
Protocol: The TGI studies in ACC PDX models were repeated in order to compare the original ATRA dose (3 or 4 mg/ml) against a more physiologically relevant dose of ATRA (8 mg/kg) and an alternative retinoid Tamibarotene (originally developed for ATRA-resistant cancer settings, approved in Japan and currently in development at Syros Pharmaceuticals).

With `CC1(C)CCC(C)(C)c2cc(NC(=O)c3ccc(C(=O)O)cc3)ccc21` [tamibarotene, 4-[(1,1,4,4-tetramethyltetralin-6-yl)carbamoyl]benzoic acid] the “tumor growth inhibition in the PDX studies” value was “showed tumor growth inhibition”.

From patent US10668039B2, “Methods for treatment of adenoid cystic carcinoma” (THE CHILDREN'S MEDICAL CENTER CORPORATION, priority 2016, dated 2020)
